Test results: paper PMC8066331, “Anticancer Activity of Triazolo-Thiadiazole Derivatives and Inhibition of AKT1 and AKT2 Activation” (Pharmaceutics, 2021)
Where two headings read alike, the source gives them in different places.

Assays:
PC-3 = assay: MTT in vitro antiproliferative assay, PC-3; assay type: cell-based; conditions: Homo sapiens; for IC (TGI): read-out: TGI
Description: (§1) The in vitro antiproliferative activities of the novel triazolo[3,4-b]thiadiazole derivatives were estimated in ten well-established human cancer cell lines including three ovarian (SKOV-3, UWB 1.289, and UWB 1.289+BRCA1), five colorectal adenocarcinoma (DLD-1, HT-29, LS174T, LoVo, and SW403), and two prostate cancer cell lines (PC-3 and DU-145). All cancer cell lines were obtained from the American Type Culture Collection (ATCC) and cultivated in different culture media according to the instructions. The required growth mediums were supplemented with 10% fetal bovine serum and 1% streptomycin/penicillin. All cancer cell lines were cultured as monolayers and maintained at 37 °C, 5% CO2 in humidified air.
(§2) Stock solutions of all tested compounds were prepared by dissolving the required amount of substances in the DMSO solvent to reach the desired concentration of 15 mM.
(§3) To evaluate the in vitro antiproliferative activity of the triazolo[3,4-b]thiadiazole derivatives, 3-(4,5-dimethylthiazol-2-yl)-2,5-diphenyltetrazolium bromide (MTT) assay was assessed. According to the protocol, cells were firstly seeded into a 96-well plate at a density of 8 × 10^3 cells and grown for 24 h at 37 °C, 5% CO2 in humidified air. Subsequently, cells were treated with the tested compounds in a specific range of drug concentrations (1–100 μΜ). Following 48 h of drug exposure, the culture media were discarded and replaced with 100 μL of fresh medium. Afterwards, 50 μL of dissolved MTT in phosphate-buffered saline (PBS) solution (5 mg/mL) were added in each well and cells were incubated for 3 h at 37 °C, 5% CO2 in humidified air. Incubation time was followed by MTT discard and the addition of 100 μL of DMSO solvent so that the formazan crystals could be dissolved. The absorbance of the converted dye was immediately measured at a wavelength of 540 nm on an ELISA reader (VersaMax Microplate Reader, Orleans, CA, USA).
(§4) The in vitro anticancer effect of a tested compound on cell viability was determined by three dose–response parameters termed GI50, TGI, and IC50. More specifically, the GI50 value indicates the required concentration of the compound that impels 50% cell growth inhibition, the TGI value corresponds to the concentration that induces 100% cell growth inhibition, and the IC50 value is the concentration that causes 50% cell death. The two parameters GI50 and TGI represent the cytostatic activity, whereas IC50 reflects the cytotoxic effect of a drug. To estimate the three parameters, nine absorbance measurements were required including control 24 h (Ct24), control 72 h (Ct72), and the mean of cell survival in all seven drug concentrations (Tt72). The percentage growth inhibition was calculated according to National Cancer Institute’s (NCI) protocol: [(Tt72x) − (Ct24)/(Ct72) − (Ct24)] × 100 for concentrations for which Tt72x > Ct24 and [(Tt72x) − (Ct24)/Ct24] × 100 for concentrations for which Tt72x < Ct24. GI50 was calculated from [(Tt72x) − (Ct24)/(Ct72) − (Ct24)] × 100 = 50, TGI was calculated from [(Tt72x) − (Ct24)/(Ct72) − (Ct24)] × 100 = 0, and IC50 was calculated from [(Tt72x) − (Ct24)/Ct24] × 100 = 50. All the experiments were carried out in triplicate.

SKOV-3 = assay: MTT in vitro antiproliferative assay, SKOV-3; assay type: cell-based; conditions: Homo sapiens; for IC (TGI): read-out: TGI
Description: as §1, §2, §3, §4

DU-145 = assay: MTT in vitro antiproliferative assay, DU-145; assay type: cell-based, human
Description: as §1, §2, §3, §4

DLD-1 = assay: MTT in vitro antiproliferative assay, DLD-1; assay type: cell-based, human; conditions: DLD-1, MTT
Description: as §1, §2, §3, §4

HT-29 = assay: MTT in vitro antiproliferative assay, HT-29; assay type: cell-based, human
Description: as §1, §2, §3, §4

[1] = PC-3, MTT, 48 h, 50% cell death, read-out: IC50
[2] = PC-3, MTT, 48 h drug exposure, read-out: GI50
[3] = SK-OV-3, SKOV-3, MTT, 48 h, concentration causing 50% cell death, read-out: IC50
[4] = SK-OV-3, SKOV-3, MTT, 48 h drug exposure, read-out: GI50
[5] = SK-OV-3, SKOV-3, MTT, 48 h drug exposure

| SMILES | IC50 (PC-3; [1]) | GI50 (PC-3; [2]) | IC (TGI) (PC-3; PC-3, MTT, 48 h drug exposure) | IC50 (SKOV-3; [3]) | GI50 (SKOV-3; [4]) | IC (TGI) (SKOV-3; [5]) | other results |
| --- | --- | --- | --- | --- | --- | --- | --- |
| CCN(CC)S(=O)(=O)c1cc(OC)c(OC)cc1Cc1nnc2sc(/C=C/c3cccc([N+](=O)[O-])c3)nn12 [Compound 9c, (E)-N,N-diethyl-4,5-dimethoxy-2-((6-(3-nitrostyryl)-[1,2,4]triazolo[3,4-b][1,3,4]thiadiazol-3-yl)methyl)benzenesulfonamide] | > 100 µM | 38 ± 2 µM | > 100 µM | > 100 µM | > 100 µM | > 100 µM |  |
| CCN(CC)S(=O)(=O)c1cc(OC)c(OC)cc1Cc1nnc2sc(-c3cc([N+](=O)[O-])ccc3[N+](=O)[O-])nn12 [Compound 6e, 2-((6-(2,5-dinitrophenyl)-[1,2,4]triazolo[3,4-b][1,3,4]thiadiazol-3-yl)methyl)-N,N-diethyl-4,5-dimethoxybenzenesulfonamide] |  |  |  |  |  |  | TGI (DU-145; DU-145, MTT, 48 h drug exposure): 18.3 ± 0.2 μΜ; GI50 (DU-145; Homo sapiens, DU-145, 48 h): 13 ± 0.5 µM; IC50 (DU-145; Homo sapiens, DU-145, 48 h): 28 ± 0.2 µM; GI50 (PC-3; PC-3, 48 h): 11 ± 1 µM; IC50 (PC-3; PC-3, 48 h): 26.5 ± 0.9 µM; IC (TGI) (PC-3; PC-3, 48 h): 17 ± 1 µM; TGI (DLD-1; 48 h drug exposure): 37 ± 2.0 μΜ; IC50 (DLD-1; Homo sapiens, 48 h, 50% cell death): 53.6 ± 1.05 µM; GI50 (DLD-1; Homo sapiens, 48 h drug exposure): 25 ± 2 µM; TGI (HT-29; HT-29, MTT, 48 h drug exposure): 29 ± 0.5 μΜ; GI50 (HT-29; Homo sapiens, HT-29, 48 h): 18 ± 1 µM; IC50 (HT-29; Homo sapiens, HT-29, 48 h): 44 ± 1 µM; GI50 (SKOV-3; SK-OV-3, 48 h): 18 ± 0.7 µM; IC50 (SKOV-3; SK-OV-3, 48 h): 38 ± 1.8 µM; IC (TGI) (SKOV-3; SK-OV-3, 48 h): 24 ± 1.2 µM |
| COc1cc(Cc2nnc3sc(-c4ccc([N+](=O)[O-])cc4)nn23)c(S(=O)(=O)N(C(C)C)C(C)C)cc1OC [Compound 7c, N,N-diisopropyl-4,5-dimethoxy-2-((6-(4-nitrophenyl)-[1,2,4]triazolo[3,4-b][1,3,4]thiadiazol-3-yl)methyl)benzenesulfonamide] | > 100 µM | 23 ± 0.8 µM | 102 ± 1.2 µM | 66 ± 2.5 µM | 15 ± 1.4 µM | 28 ± 2.2 µM |  |
| CCN(CC)S(=O)(=O)c1cc(OC)c(OC)cc1Cc1nnc2sc(/C=C/c3ccc(Cl)cc3)nn12 [Compound 9a, (E)-2-((6-(4-chlorostyryl)-[1,2,4]triazolo[3,4-b][1,3,4]thiadiazol-3-yl)methyl)-N,N-diethyl-4,5-dimethoxybenzenesulfonamide] | > 100 µM | 11 ± 1 µM | > 100 µM | > 100 µM | 84 ± 2 µM | > 100 µM |  |
| COc1cc(Cc2nnc3sc(-c4ccc(F)cc4)nn23)c(S(=O)(=O)N(C(C)C)C(C)C)cc1OC [Compound 7b, 2-((6-(4-fluorophenyl)-[1,2,4]triazolo[3,4-b][1,3,4]thiadiazol-3-yl)methyl)-N,N-diisopropyl-4,5-dimethoxybenzenesulfonamide] | > 100 µM | 25 ± 0.5 µM | 80 ± 1 µM | > 100 µM | 80 ± 0.8 µM | > 100 µM |  |
| COc1cc(Cc2nnc3sc(/C=C/c4ccc(Cl)cc4)nn23)c(S(=O)(=O)N(C(C)C)C(C)C)cc1OC [Compound 10a, (E)-2-((6-(4-chlorostyryl)-[1,2,4]triazolo[3,4-b][1,3,4]thiadiazol-3-yl)methyl)-N,N-diisopro-pyl-4,5-dimethoxybenzenesulfonamide] | > 100 µM | 2 ± 0.5 µM | 84 ± 2 µM | > 100 µM | 76 ± 6 µM | > 100 µM |  |
| CCN(CC)S(=O)(=O)c1cc(OC)c(OC)cc1Cc1nnc2sc(-c3cccc(Cl)c3)nn12 [Compound 6a, 2-((6-(3-chlorophenyl)-[1,2,4]triazolo[3,4-b][1,3,4]thiadiazol-3-yl)methyl)-N,N-diethyl-4,5-dimethoxybenzenesulfonamide] | > 100 µM | 25 ± 1.4 µM | 112 ± 2.5 µM | > 100 µM | 6 ± 0.3 µM | 14 ± 2.5 µM |  |
| COc1cc(Cc2nnc3sc(-c4cccc(Cl)c4)nn23)c(S(=O)(=O)N(C(C)C)C(C)C)cc1OC [Compound 7a, 2-((6-(3-chlorophenyl)-[1,2,4]triazolo[3,4-b][1,3,4]thiadiazol-3-yl)methyl)-N,N-diisopropyl-4,5-dimethoxybenzenesulfonamide] | > 100 µM | 20 ± 0.8 µM | > 100 µM | > 100 µM | 16 ± 0.8 µM | 46 ± 1.5 µM |  |
| CCN(CC)S(=O)(=O)c1cc(OC)c(OC)cc1Cc1nnc2sc(-c3ccc([N+](=O)[O-])cc3)nn12 [Compound 6d, N,N-diethyl-4,5-dimethoxy-2-((6-(4-nitrophenyl)-[1,2,4]triazolo[3,4-b][1,3,4]thiadiazol-3-yl)methyl)benzenesulfonamide] | > 100 µM | 50 ± 0.5 µM | > 100 µM | > 100 µM | 80 ± 0.5 µM | > 100 µM |  |
| CCN(CC)S(=O)(=O)c1cc(OC)c(OC)cc1Cc1nnc2sc(/C=C/c3ccc(F)cc3)nn12 [Compound 9b, (E)-N,N-diethyl-2-((6-(4-fluorostyryl)-[1,2,4]triazolo[3,4-b][1,3,4]thiadiazol-3-yl)methyl)-4,5-dimethoxybenzenesulfonamide] | > 100 µM | 42 ± 1 µM | > 100 µM | > 100 µM | > 100 µM | > 100 µM |  |
| CCN(CC)S(=O)(=O)c1cc(OC)c(OC)cc1Cc1nnc2sc(-c3ccc(F)cc3)nn12 [Compound 6c, N,N-diethyl-2-((6-(4-fluorophenyl)-[1,2,4]triazolo[3,4-b][1,3,4]thiadiazol-3-yl)methyl)-4,5-dimethoxybenzenesulfonamide] | > 100 µM | 90 ± 2 µM | > 100 µM | > 100 µM | > 100 µM | > 100 µM |  |
| COc1cc(Cc2nnc3sc(/C=C/c4ccc(F)cc4)nn23)c(S(=O)(=O)N(C(C)C)C(C)C)cc1OC [Compound 10b, (E)-2-((6-(4-fluorostyryl)-[1,2,4]triazolo[3,4-b][1,3,4]thiadiazol-3-yl)methyl)-N,N-diisopro-pyl-4,5-dimethoxybenzenesulfonamide] | > 100 µM | 31 ± 1.1 µM | > 100 µM | > 100 µM | 50 ± 2 µM | > 100 µM |  |
| CCN(CC)S(=O)(=O)c1cc(OC)c(OC)cc1Cc1nnc2sc(/C=C/c3ccc([N+](=O)[O-])cc3)nn12 [Compound 9d, (E)-N,N-diethyl-4,5-dimethoxy-2-((6-(4-nitrostyryl)-[1,2,4]triazolo[3,4-b][1,3,4]thiadiazol-3-yl)methyl)benzenesulfonamide] | > 100 µM | 30 ± 0.5 µM | > 100 µM | > 100 µM | > 100 µM | > 100 µM |  |
| CCN(CC)S(=O)(=O)c1cc(OC)c(OC)cc1Cc1nnc2sc(-c3ccc(Cl)cc3)nn12 [Compound 6b, 2-((6-(4-chlorophenyl)-[1,2,4]triazolo[3,4-b][1,3,4]thiadiazol-3-yl)methyl)-N,N-diethyl-4,5-dimethoxybenzenesulfonamide] | 104 ± 0.8 µM | 32 ± 0.4 µM | 56 ± 0.6 µM | > 100 µM | 36 ± 0.1 µM | 60 ± 0.8 µM |  |
